Assays:
[1] = test system: isolated rat hearts; test: In vitro model for ischemia (perfused isolated rat hearts); conditions: 5 mM lactate
Experimental: In order to determine the suitability of lactate for the treatment of conditions such as ischemia-reperfusion, isolated rat harts were perfused either with perfusion medium containing 5 mM lactate or with a perfusion medium (control) containing 0.2 mM of hexanoic acid and 5.5 mM glucose in accordance with the protocol described by Garnier A. et al., J Mol Cell Cardiol 1996, 28, 1671-1682.

[2] = test system: patients suffering from brain injury (brain trauma) with increased intracranial pressure; test: Treatment of increased intracranial pressure caused by brain trauma; assay type: in vivo, human
Experimental: For this purpose, the composition of the invention or the mannitol was administered (infused) to a group of each twelve patients and the ICP was measured every 15 minutes.
The results of this study, in which 12 patients were either treated with mannitol or the hypertonic lactate solution of the invention, are shown in FIGS. 1 to 4 as well as in Tables 2 to 5.

SMILES	rate pressure product ([1]; 40 minutes perfusion after 40 minutes ischemia, compared to control (FIG. 9A))	heart rate ([1]; 40 minutes perfusion after 40 minutes ischemia, compared to control (FIG. 9C))	diastolic pressure ([1]; compared to control (FIG. 9B))	CPP after treatment ([2]; after treatment) [mm Hg]	ICP after treatment ([2]; after treatment) [mm Hg]	CPP before treatment ([2]; before treatment) [mm Hg]	ICP before treatment ([2]; before treatment, mean ± sem) [mm Hg]	number of survival ([2]; brain trauma patients, survivors out of group)	number of successful treatment (only first treatment) ([2]; first treatment only)	patients that survived the brain trauma ([2]; groups of 12 patients (FIG. 2))	number of successful treatment (all treatments) ([2]; out of all ICH episodes treated)	number of cross over ([2]; patients switched to the other treatment after failure)	decrease in the intracranial pressure ([2]; within the first 30 minutes after the treatment (FIG. 1))	ICP as share of the initial untreated ICP ([2]; within the next 3.5 hours after the treatment (rebound, FIG. 1))
CC(O)C(=O)O (centres unmarked) [lactate]	significantly higher and prolonged increase	significantly higher and prolonged increase	significantly decreased											
OC[C@@H](O)[C@@H](O)[C@H](O)[C@H](O)CO [mannitol]				73.2 ± 2.4	25.7 ± 1.7	67.6 ± 2.2	31 ± 1.8	7 out of 11	5 out of 11	7	14 out of 25	4 out of 11	about 20%	about 90%

Reference: US20080125488A1, “Lactate Containing Pharmaceutical Composition and Uses Thereof” (priority 2003, published 2008)
